Measurements: patent publication US6924309B2 (Children, Youth and Women's Health Service Incorporated, priority 1999, dated 2005)
Read-outs that look alike come from different tables or passages of the source.

Assays:
[1] = Petri-dish thin film autoxidation of arachidonic acid with thia fatty acids and sulfides (HPLC); conditions: for Arachidonic acid (%) recovered following autoxidation: arachidonic acid alone
Procedure: A stock solution in dichioromethane (2 ml) containing arachidonic acid 1 (18 mg) and 3-[(3Z,6Z)-nona-3,6dienylthio]propionic acid 106 (18 mg) was prepared with lauric acid (18 mg) as an internal standard. Samples of the stock solution (100 μl) were added to glass Petri-dishes followed by ethanol (400 μl). After evaporation of the solvent, a well-distributed thin film was formed on each Petri-dish. The Petri-dishes were placed in a desiccator, which was then evacuated, filled with oxygen and stored in the darkness. Dishes were removed from the desiccator after 1, 2, 3, 5 and 7 days. The mixture on each dish was redissolved in diethyl ether and transferred to a 2 ml vial. After evaporation of the solvent, the residue was dissolved in the HPLC mobile phase (100 μl) and 10% of the solution was analysed by HPLC using a reverse phase column (octadecylsilane) (4.6 mm×250 mm, 3 μm) and a refractive index detector.
Autoxidation of arachidonic acid was conducted in the presence of compound 19 and lauric acid. Stock solutions of arachidonic acid, compound 19 and lauric acid in dichloromethane with equal concentrations were added to a 25 ml round-bottomed flask, and the solvent was evaporated to leave a thin film on the internal surface of the flask. The flask was then filled with oxygen and kept in the dark. The percentages of arachidonic acid and compound 19 remaining after 7 days were measured by HPLC. The same assay was carried out simultaneously with several flasks but the results were not reproducible. The variation was attributed to differences in oxygen concentration and the surface area of the thin films formed in the flasks. Therefore, in order to establish a reproducible assay for the analysis of the autoxidation of arachidonic acid, Petri-dishes with uniform size (80 mm in diameter) were used instead of flasks for thin film formation and the oxidation was carried out by placing the Petri-dishes in a dessicator filled with oxygen. To assess this method, thin firms of arachidonic acid with lauric acid as a standard were prepared on six Petri-dishes using identical treatment, and then subjected to oxidation in the same dessicator filled with oxygen. After 24 h, the percentage of arachidonic acid recovered following autoxidation in each Petri-dish was determined by HPLC. […] The advantage of using a Petri-dish over a flask is that the thin films on each Petri-dish are spread over the same area, and each Petri-dish is exposed to oxygen to the same extent.
Using the Petri-dish assay method, the effects of the thia PUFAs and sulfides 106 and 108-111, along with compounds 18, 19 and 3-[(Z,Z,Z)-(octadeca-9,12,15-trienylthio)] propionic acid 112 which were available in the laboratory, on the autoxidation of arachidonic acid, were examined. In addition, the stability of these compounds in the presence of arachidonic acid was also investigated. Arachidonic acid and lauric acid as a standard were mixed with each sulfur compound at different ratios and the mixtures were subjected to thin film autoxidation. The mixtures were analysed by HPLC after 1,2,3,5 and 7 days.

[2] = Thin film autoxidation of arachidonic acid with compounds 16-19 (HPLC)
Description: Subsequently, the autoxidation of compounds 16-19 and their effects on the autoxidation of arachidonic acid were investigated. In these experiments, a thin film assay method was employed. For each reaction, arachidonic acid was mixed with one of the synthetic compounds 16, 17, 18 or 19 at 1:1 ratio with or without the radical initiator, azobisisobutyronitrile (AIBN). A reverse phase HPLC method was used to simultaneously measure the relative amounts of arachidonic acid and the synthetic compounds 16, 17, 18 or 19 recovered following 60 or 70 hours or 7 days of thin film autoxidation.

[3] = 1:1 ratio with arachidonic acid
[4] = compound at one-tenth that of arachidonic acid
[5] = ratio arachidonic acid:compound 1:1, 1 day
[6] = ratio arachidonic acid:compound 1:1, 2 days
[7] = ratio arachidonic acid:compound 1:1, 3 days
[8] = ratio arachidonic acid:compound 1:1, 5 days
[9] = ratio arachidonic acid:compound 1:1, 7 days
[10] = ratio arachidonic acid:compound 2:1, 1 day
[11] = ratio arachidonic acid:compound 2:1, 2 days
[12] = ratio arachidonic acid:compound 2:1, 3 days
[13] = ratio arachidonic acid:compound 2:1, 5 days
[14] = ratio arachidonic acid:compound 2:1, 7 days
[15] = ratio arachidonic acid:compound 10:1, 1 day
[16] = ratio arachidonic acid:compound 10:1, 2 days
[17] = ratio arachidonic acid:compound 10:1, 3 days
[18] = ratio arachidonic acid:compound 10:1, 5 days
[19] = ratio arachidonic acid:compound 10:1, 7 days

CCCCC/C=C\C/C=C\C/C=C\C/C=C\CCCC(=O)O [Arachidonic acid, arachidonic acid, reference compound]
Arachidonic acid (%) recovered following autoxidation ([1]; 1 day): 91%
Arachidonic acid (%) recovered following autoxidation ([1]; 2 days): 20%
Arachidonic acid (%) recovered following autoxidation ([1]; 3 days): 16%
Arachidonic acid (%) recovered following autoxidation ([1]; 5 days): 12%

CCCCC/C=C\C/C=C\C/C=C\CCCCCOCC(=O)O [Compound 16, (Z,Z,Z)-(octadeca-6,9,12-trienyloxy) acetic acid]
Percentage of arachidonic acid recovered in the presence of the compound ([2]; ratio 1:1, 10% AIBN 60 h): 17%
Percentage of compound recovered (with arachidonic acid) ([2]; ratio 1:1, 10% AIBN 60 h): 11%
Percentage of arachidonic acid recovered in the presence of the compound ([2]; ratio 1:1, no additive 70 h): 97%
Percentage of compound recovered (with arachidonic acid) ([2]; ratio 1:1, no additive 70 h): 88%
Percentage of arachidonic acid recovered in the presence of the compound ([2]; ratio 1:1, no additive 7 day): 23%
Percentage of compound recovered (with arachidonic acid) ([2]; ratio 1:1, no additive 7 day): 27%

CC/C=C\C/C=C\C/C=C\CCCCCCCCOCC(=O)O [Compound 17, (Z,Z,Z)-(octadeca-9,12,15-trienyloxy) acetic acid]
Percentage of arachidonic acid recovered in the presence of the compound ([2]; ratio 1:1, 10% AIBN 60 h): 44%
Percentage of compound recovered (with arachidonic acid) ([2]; ratio 1:1, 10% AIBN 60 h): 49%
Percentage of arachidonic acid recovered in the presence of the compound ([2]; ratio 1:1, no additive 70 h): 92%
Percentage of compound recovered (with arachidonic acid) ([2]; ratio 1:1, no additive 70 h): 102%
Percentage of arachidonic acid recovered in the presence of the compound ([2]; ratio 1:1, no additive 7 day): 30%
Percentage of compound recovered (with arachidonic acid) ([2]; ratio 1:1, no additive 7 day): 41%
Autoxidation of arachidonic acid in the presence of the compound (in words) ([2]; ratio 1:1, with or without AIBN): substantial degree of autoxidation

CC/C=C\C/C=C\CCSCCC(=O)O [Compound 106]
Antioxidant effect on autoxidation of arachidonic acid (in words) [1]: effective antioxidants
Antioxidant effect on autoxidation of arachidonic acid (in words) [1, 3]: almost complete prevention of autoxidation
Antioxidant effect on autoxidation of arachidonic acid (in words) [1, 4]: very slow over the first 3 days
Arachidonic acid (%) recovered following autoxidation in the presence of the compound [1, 5]: 99%
Compound (%) recovered following autoxidation with arachidonic acid [1, 5]: 98%
Arachidonic acid (%) recovered following autoxidation in the presence of the compound [1, 6]: 98%
Compound (%) recovered following autoxidation with arachidonic acid [1, 6]: 96%
Arachidonic acid (%) recovered following autoxidation in the presence of the compound [1, 7]: 99%
Compound (%) recovered following autoxidation with arachidonic acid [1, 7]: 98%
Arachidonic acid (%) recovered following autoxidation in the presence of the compound [1, 8]: 100%
Compound (%) recovered following autoxidation with arachidonic acid [1, 8]: 97%
Arachidonic acid (%) recovered following autoxidation in the presence of the compound [1, 9]: 101%
Compound (%) recovered following autoxidation with arachidonic acid [1, 9]: 98%
Arachidonic acid (%) recovered following autoxidation in the presence of the compound [1, 10]: 98%
Compound (%) recovered following autoxidation with arachidonic acid [1, 10]: 97%
Arachidonic acid (%) recovered following autoxidation in the presence of the compound [1, 11]: 99%
Compound (%) recovered following autoxidation with arachidonic acid [1, 11]: 98%
Arachidonic acid (%) recovered following autoxidation in the presence of the compound [1, 12]: 98%
Compound (%) recovered following autoxidation with arachidonic acid [1, 12]: 97%
Arachidonic acid (%) recovered following autoxidation in the presence of the compound [1, 13]: 99%
Compound (%) recovered following autoxidation with arachidonic acid [1, 13]: 97%
Arachidonic acid (%) recovered following autoxidation in the presence of the compound [1, 14]: 99%
Compound (%) recovered following autoxidation with arachidonic acid [1, 14]: 100%
Arachidonic acid (%) recovered following autoxidation in the presence of the compound [1, 15]: 101%
Compound (%) recovered following autoxidation with arachidonic acid [1, 15]: 94%
Arachidonic acid (%) recovered following autoxidation in the presence of the compound [1, 16]: 101%
Compound (%) recovered following autoxidation with arachidonic acid [1, 16]: 84%
Arachidonic acid (%) recovered following autoxidation in the presence of the compound [1, 17]: 99%
Compound (%) recovered following autoxidation with arachidonic acid [1, 17]: 59%
Arachidonic acid (%) recovered following autoxidation in the presence of the compound [1, 18]: 79%
Arachidonic acid (%) recovered following autoxidation in the presence of the compound [1, 19]: 16%

CCCCC/C=C\C/C=C\C/C=C\C/C=C\CCCCSCCC [Compound 110, propyl(all-Z)-eicosa-5,8,11,14-tetraenylpropyl sulfide]
Antioxidant effect on autoxidation of arachidonic acid (in words) [1, 3]: effectively inhibit
Antioxidant effect on autoxidation of arachidonic acid (in words) [1, 4]: still effective antioxidiants
Arachidonic acid (%) recovered following autoxidation in the presence of the compound [1, 7]: 100%
Compound (%) recovered following autoxidation with arachidonic acid [1, 7]: 99%
Arachidonic acid (%) recovered following autoxidation in the presence of the compound [1, 9]: 100%
Compound (%) recovered following autoxidation with arachidonic acid [1, 9]: 100%
Arachidonic acid (%) recovered following autoxidation in the presence of the compound [1, 15]: 97%
Compound (%) recovered following autoxidation with arachidonic acid [1, 15]: 85%
Arachidonic acid (%) recovered following autoxidation in the presence of the compound [1, 16]: 89%
Compound (%) recovered following autoxidation with arachidonic acid [1, 16]: 22%
Arachidonic acid (%) recovered following autoxidation in the presence of the compound [1, 17]: 67%
Arachidonic acid (%) recovered following autoxidation in the presence of the compound [1, 18]: 24%
Arachidonic acid (%) recovered following autoxidation in the presence of the compound [1, 19]: 10%

CCCCCCCCCCCCCCSCCC [Compound 111, propyltetradecyl sulfide]
Antioxidant effect on autoxidation of arachidonic acid (in words) [1, 3]: effectively inhibit
Antioxidant effect on autoxidation of arachidonic acid (in words) [1, 4]: still effective antioxidiants
Arachidonic acid (%) recovered following autoxidation in the presence of the compound [1, 5]: 100%
Compound (%) recovered following autoxidation with arachidonic acid [1, 5]: 101%
Arachidonic acid (%) recovered following autoxidation in the presence of the compound [1, 6]: 98%
Compound (%) recovered following autoxidation with arachidonic acid [1, 6]: 91%
Arachidonic acid (%) recovered following autoxidation in the presence of the compound [1, 7]: 98%
Compound (%) recovered following autoxidation with arachidonic acid [1, 7]: 92%
Arachidonic acid (%) recovered following autoxidation in the presence of the compound [1, 8]: 98%
Compound (%) recovered following autoxidation with arachidonic acid [1, 8]: 92%
Arachidonic acid (%) recovered following autoxidation in the presence of the compound [1, 9]: 97%
Compound (%) recovered following autoxidation with arachidonic acid [1, 9]: 90%
Arachidonic acid (%) recovered following autoxidation in the presence of the compound [1, 15]: 99%
Compound (%) recovered following autoxidation with arachidonic acid [1, 15]: 81%
Arachidonic acid (%) recovered following autoxidation in the presence of the compound [1, 16]: 99%
Compound (%) recovered following autoxidation with arachidonic acid [1, 16]: 63%
Arachidonic acid (%) recovered following autoxidation in the presence of the compound [1, 17]: 97%
Compound (%) recovered following autoxidation with arachidonic acid [1, 17]: 38%
Arachidonic acid (%) recovered following autoxidation in the presence of the compound [1, 18]: 68%
Arachidonic acid (%) recovered following autoxidation in the presence of the compound [1, 19]: 17%

CC/C=C\C/C=C\C/C=C\CCCCCCCCSCCC(=O)O [Compound 112, 3-[(Z,Z,Z)-(octadeca-9,12,15-trienylthio)]-propionic acid]
Antioxidant effect on autoxidation of arachidonic acid (in words) [1]: effective antioxidants
Antioxidant effect on autoxidation of arachidonic acid (in words) [1, 3]: effective as an antioxidant
Antioxidant effect on autoxidation of arachidonic acid (in words) [1, 4]: less effective than either compound 19 or 106
Arachidonic acid (%) recovered following autoxidation in the presence of the compound [1, 5]: 100%
Compound (%) recovered following autoxidation with arachidonic acid [1, 5]: 100%
Arachidonic acid (%) recovered following autoxidation in the presence of the compound [1, 6]: 99%
Compound (%) recovered following autoxidation with arachidonic acid [1, 6]: 98%
Arachidonic acid (%) recovered following autoxidation in the presence of the compound [1, 7]: 98%
Compound (%) recovered following autoxidation with arachidonic acid [1, 7]: 97%
Arachidonic acid (%) recovered following autoxidation in the presence of the compound [1, 8]: 99%
Compound (%) recovered following autoxidation with arachidonic acid [1, 8]: 97%
Arachidonic acid (%) recovered following autoxidation in the presence of the compound [1, 9]: 93%
Compound (%) recovered following autoxidation with arachidonic acid [1, 9]: 86%
Arachidonic acid (%) recovered following autoxidation in the presence of the compound [1, 15]: 82%
Compound (%) recovered following autoxidation with arachidonic acid [1, 15]: 25%
Arachidonic acid (%) recovered following autoxidation in the presence of the compound [1, 16]: 33%
Arachidonic acid (%) recovered following autoxidation in the presence of the compound [1, 17]: 17%
Arachidonic acid (%) recovered following autoxidation in the presence of the compound [1, 18]: 4%
